Data reported in patent US12466809B2, “CDK2/5 degraders and uses thereof” (DANA-FARBER CANCER INSTITUTE, INC., priority 2019, dated 2025).

Columns and labels:
[1] = target: CDK2/Cyclin A (Homo sapiens (Human), UniProt P24941); assay: Invitrogen Z'-LYTE kinase assay CDK2/Cyclin A (assay ID 315, Km app, 10-point titration); assay type: biochemical; conditions: Km app ATP
Source text: (§1) CDK2 and CDK5 IC50 data were attained through the use of Invitrogen™ commercial assays. The method for CDK2 (assay ID: 315, kinase|Z'-LYTE™|CDK2/Cyclin A|Km app) used a 10-point titration. The method for CDK5 (assay ID: 318, kinase|Z'-LYTE™|CDK5/p25|Km app) used a 10-point titration.

[2] = target: CDK5/p25 (Homo sapiens (Human), UniProt Q00535); assay: Invitrogen Z'-LYTE kinase assay CDK5/p25 (assay ID 318, Km app, 10-point titration); assay type: biochemical; conditions: CDK5/p25, Km app ATP
Source text: as §1

[3] = target: CDK2 (Homo sapiens (Human), UniProt P24941); assay: Knockdown of CDK2/5 in OVCAR8 cells, immunoblot: CDK2; assay type: cell-based; conditions: various concentrations, 6 hours
[4] = target: CDK5 (Homo sapiens (Human), UniProt Q00535); assay: Knockdown of CDK2/5 in OVCAR8 cells, immunoblot: CDK5; assay type: cell-based; conditions: various concentrations, 6 hours
[5] = target: CDK9 (Homo sapiens (Human), UniProt P50750); assay: Knockdown of CDKs in Jurkat cells, immunoblot: CDK9; assay type: cell-based; conditions: 0.25 μM, 6 hours
Description: Jurkat acute T cell leukemia cells were treated with 0, 0.1 μM, 1 μM, and 10 μM of compounds 1-7 or 0.25 μM THAL-SNS-032 (a known CDK9 degrader, as a positive control for CDK9 degradation) for 6 hours, and then lysed and immunoblotted with antibodies to CDK1, CDK2, CDK5, CDK7, CDK9, CDK12, CDK13 and R-Actin (FIG. 1A-FIG. 2B).

Sequence of CDK5/p25 (Q00535 whole entry): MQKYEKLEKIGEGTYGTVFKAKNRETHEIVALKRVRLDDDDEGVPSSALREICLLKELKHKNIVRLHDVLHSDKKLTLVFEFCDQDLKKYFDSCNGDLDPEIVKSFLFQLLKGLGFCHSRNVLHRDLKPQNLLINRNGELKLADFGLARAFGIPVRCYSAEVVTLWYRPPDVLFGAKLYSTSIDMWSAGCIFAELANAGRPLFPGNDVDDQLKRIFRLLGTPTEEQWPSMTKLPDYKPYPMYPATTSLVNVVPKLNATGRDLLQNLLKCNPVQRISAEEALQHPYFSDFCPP
Sequence of CDK5/p25 (Q15078 99-307 partner): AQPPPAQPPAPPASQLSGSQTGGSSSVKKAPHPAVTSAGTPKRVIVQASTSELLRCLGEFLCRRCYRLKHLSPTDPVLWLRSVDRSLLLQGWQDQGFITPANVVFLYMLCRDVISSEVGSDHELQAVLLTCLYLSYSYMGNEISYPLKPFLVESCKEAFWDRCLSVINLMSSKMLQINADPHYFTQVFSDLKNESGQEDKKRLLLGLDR
Sequence of CDK5 (Q00535 whole entry): as the sequence (Q00535 whole entry) above
Sequence of CDK9 (P50750 whole entry): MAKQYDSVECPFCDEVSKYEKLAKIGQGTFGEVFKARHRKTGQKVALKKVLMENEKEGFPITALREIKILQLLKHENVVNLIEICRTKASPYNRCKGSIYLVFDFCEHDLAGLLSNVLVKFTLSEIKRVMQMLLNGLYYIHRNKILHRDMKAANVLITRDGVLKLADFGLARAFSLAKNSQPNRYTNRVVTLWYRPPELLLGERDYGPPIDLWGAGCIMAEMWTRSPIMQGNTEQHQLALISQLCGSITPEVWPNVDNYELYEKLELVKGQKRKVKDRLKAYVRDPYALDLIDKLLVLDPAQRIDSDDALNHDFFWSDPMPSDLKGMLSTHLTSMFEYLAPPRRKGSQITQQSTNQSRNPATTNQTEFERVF

SMILES | IC50 [1] [nM] | IC50 [2] [nM] | knockdown of CDK2 [3] | knockdown of CDK5 [4] | CDK9 degradation [5]
NC(=O)c1c(F)cccc1Nc1nc(NC2CCN(S(=O)(=O)CCNC(=O)CCCCCCCCOc3cccc4c3C(=O)N(C3CCC(=O)NC3=O)C4=O)CC2)ncc1Br (stereo not drawn) [Compound 5, 2-((5-bromo-2-((1-((2-(9-((2-(2,6-dioxopiperidin-3-yl)-1,3-dioxoisoindolin-4-yl)oxy)nonanamido)ethyl)sulfonyl)piperidin-4-yl)amino)pyrimidin-4-yl)amino)-6-fluorobenzamide] | 28.7 | 16.1 | selective knockdown | selective knockdown | 
O=C(CCOCCOCCOCCOCCNc1cccc2c1C(=O)N(C1CCC(=O)NC1=O)C2=O)NCCS(=O)(=O)N1CCC(Nc2ncc(Br)c(Nc3cccc4c3C(=O)NC4)n2)CC1 (stereo not drawn) [Compound 20, N-(2-((4-((5-bromo-4-((3-oxoisoindolin-4-yl)amino)pyrimidin-2-yl)amino)piperidin-1-yl)sulfonyl)ethyl)-1-((2-(2,6-dioxopiperidin-3-yl)-1,3-dioxoisoindolin-4-yl)amino)-3,6,9,12-tetraoxapentadecan-15-amide] | 4.7 | 5.8 |  |  | 
O=C(CCCCCCCCOc1cccc2c1C(=O)N(C1CCC(=O)NC1=O)C2=O)NCCS(=O)(=O)N1CCC(Nc2ncc(Br)c(Nc3cccc4c3C(=O)NC4)n2)CC1 (stereo not drawn) [Compound 21, N-(2-((4-((5-bromo-4-((3-oxoisoindolin-4-yl)amino)pyrimidin-2-yl)amino)piperidin-1-yl)sulfonyl)ethyl)-9-((2-(2,6-dioxopiperidin-3-yl)-1,3-dioxoisoindolin-4-yl)oxy)nonanamide] | 10.5 | 7.6 |  |  | 
Cn1ncc(Nc2nc(NC3CCN(S(=O)(=O)CCNC(=O)CCCCCCCCOc4cccc5c4C(=O)N(C4CCC(=O)NC4=O)C5=O)CC3)ncc2Br)c1C(N)=O (stereo not drawn) [Compound 22, 4-((5-bromo-2-((1-((2-(9-((2-(2,6-dioxopiperidin-3-yl)-1,3-dioxoisoindolin-4-yl)oxy)nonanamido)ethyl)sulfonyl)piperidin-4-yl)amino)pyrimidin-4-yl)amino)-1-methyl-1H-pyrazole-5-carboxamide] | 5.7 | 5.7 |  |  | 
NC(=O)c1c(F)cccc1Nc1nc(Nc2ccc(S(=O)(=O)NCCOCCOCCOCCOCCNc3cccc4c3C(=O)N(C3CCC(=O)NC3=O)C4=O)cc2)ncc1Br (stereo not drawn) [Compound 23, 2-((5-bromo-2-((4-(N-(14-((2-(2,6-dioxopiperidin-3-yl)-1,3-dioxoisoindolin-4-yl)amino)-3,6,9,12-tetraoxatetradecyl)sulfamoyl)phenyl)amino)pyrimidin-4-yl)amino)-6-fluorobenzamide] | 10.9 | 7 |  |  | 
Cc1cc(Nc2ncc(Br)c(Nc3cccc(F)c3C(N)=O)n2)ccc1S(=O)(=O)NCCOCCOCCOCCOCCNc1cccc2c1C(=O)N(C1CCC(=O)NC1=O)C2=O (stereo not drawn) [Compound 25, 2-((5-bromo-2-((4-(N-(14-((2-(2,6-dioxopiperidin-3-yl)-1,3-dioxoisoindolin-4-yl)amino)-3,6,9,12-tetraoxatetradecyl)sulfamoyl)-3-methylphenyl)amino)pyrimidin-4-yl)amino)-6-fluorobenzamide] | 8.1 | 7.1 |  |  | 

The next lines start with the values.

IC50 [1] [nM] | IC50 [2] [nM] | knockdown of CDK2 [3] | knockdown of CDK5 [4] | CDK9 degradation [5] | SMILES
1.7 | 1.4 |  |  |  | Cc1cc(S(=O)(=O)NCCOCCOCCOCCOCCNC(=O)COc2cccc3c2C(=O)N(C2CCC(=O)NC2=O)C3=O)ccc1Nc1ncc(Br)c(Nc2cccc(F)c2C(N)=O)n1 (stereo not drawn) [Compound 46, 2-((5-bromo-2-((4-(N-(1-((2-(2,6-dioxopiperidin-3-yl)-1,3-dioxoisoindolin-4-yl)oxy)-2-oxo-6,9,12,15-tetraoxa-3-azaheptadecan-17-yl)sulfamoyl)-2-methylphenyl)amino)pyrimidin-4-yl)amino)-6-fluorobenzamide]
19.4 | 18.2 |  |  |  | Cc1cc(S(=O)(=O)NCCCCCCCCCCNC(=O)COc2cccc3c2C(=O)N(C2CCC(=O)NC2=O)C3=O)ccc1Nc1ncc(Br)c(Nc2cccc(F)c2C(N)=O)n1 (stereo not drawn) [Compound 47, 2-((5-bromo-2-((4-(N-(10-(2-((2-(2,6-dioxopiperidin-3-yl)-1,3-dioxoisoindolin-4-yl)oxy)acetamido)decyl)sulfamoyl)-2-methylphenyl)amino)pyrimidin-4-yl)amino)-6-fluorobenzamide]
2 | 2.9 |  |  |  | Cc1cc(S(=O)(=O)NCCCCN2CCN(C(=O)COc3cccc4c3C(=O)N(C3CCC(=O)NC3=O)C4=O)CC2)ccc1Nc1ncc(Br)c(Nc2cccc(F)c2C(N)=O)n1 (stereo not drawn) [Compound 48, 2-((5-bromo-2-((4-(N-(4-(4-(2-((2-(2,6-dioxopiperidin-3-yl)-1,3-dioxoisoindolin-4-yl)oxy)acetyl)piperazin-1-yl)butyl)sulfamoyl)-2-methylphenyl)amino)pyrimidin-4-yl)amino)-6-fluorobenzamide]
 |  |  |  | induced CDK9 degradation | CC(C)(C)c1cnc(CSc2cnc(NC(=O)C3CCN(CC(=O)NCCOCCOCCOCCNc4cccc5c4C(=O)N(C4CCC(=O)NC4=O)C5=O)CC3)s2)o1 (stereo not drawn) [THAL-SNS-032]
